Laboratory results reported in paper PMC5369524 (Chemical Science, 2016).

Legend:
[1] = tested on: HIV; conditions: ref [55]; cited from earlier work
[2] = target: full NCp7 peptide (Human immunodeficiency virus type 1 group M subtype B, UniProt P12493)
[3] = target: full NCp7 zinc finger peptide (Human immunodeficiency virus type 1 group M subtype B, UniProt P12493); conditions: positive band centered at 210–220 nm
[4] = target: C-terminal ZF2 of HIV1NCp7 (Human immunodeficiency virus type 1 group M subtype B, UniProt P12493); conditions: figures in parentheses of Table 1

Structure (SMILES) | Anti-HIV activity [1] | K a, association with full NCp7 peptide ([2]; figures in bold parentheses of Table 1) | K a, association constant with full NCp7 peptide ([2]; fluorescence quenching) | Effect on CD spectrum / tertiary structure of NCp7 [3] | K a, association with C-terminal ZF2 of HIV1NCp7 [4]
CCn1cnc2c(=O)[nH]c(N)nc21.N.[Cl][Pt+].c1ccc2ncccc2c1 [SP-4-2-[PtCl(NH3)(9-EtGua)(quinoline)]^+] | modest anti-HIV activity |  |  |  | 
CCn1cnc2c(=O)[nH]c(N)nc21.NCCNCCN.[Pt+2] [[Pt(dien)(9-EtGua)]^2+] |  | (20 ± 0.08) ×10^3 M^–1 | 2.0 × 10^4 M^–1 | no major disruption of the peptide | (13.10 ± 0.94) ×10^3 M^–1
